The results in this text go back to patent US9585933B2, “Therapeutic use of peptide inhibitors of NADPH oxidase; aerosolization as a delivery mechanism” (University of Pittsburgh—Of the Commonwealth System of …, priority 2011, dated 2017).

Where no end group is shown, it is not given here.

The test system of assay [1] is hypoxia-induced pulmonary hypertension in mice. The assay can be described thus: Aerosolized peptide in hypoxia-induced pulmonary hypertension, right ventricular hypertrophy. The assay is classed as in vivo, mice (C57BL/6). The procedure:
Nebulization was performed using a peptide solution of 5.6 mg of the Nox2ds-tat polypeptide—RKKRRQRRRCSTRIRRQL (SEQ ID NO: 7)—was dissolved in 5 mL of PBS. The polypeptide-containing solution was placed in a nebulization chamber which consisted of a Plexiglas living environment measuring 24×10×9 in. A diffuser was placed in front of the inlet to allow equal distribution of nebulized droplets, and a controlled fan pulled air through the environment
The polypeptide was delivered to mice (C57BL/6, n=2) at an air flow rate of 8 L/minute for 20 minutes per treatment. Treatment was repeated every other day for 21 days.
FIG. 7 (top panel) is a graph showing right ventricular pressure and FIG. 7 (bottom panel) is a graph showing the Fulton's Index for the mice tested. To obtain a Fulton's Index, the heart and lungs are excised and weighed, and the ratio of RV free wall weight over septum plus left ventricular (LV) free wall weight is estimated and used as the index of RV hypertrophy.
Invasive hemodynamics to examine RV function were carried out using pressure-volume loop analysis (Scisence P/V loop hardware, London, Ontario with IOX2 analysis software, EMKA, Falls Church, Va.). Contractility index (dP/dtmax/IP), Powermax/EDV, and ejection fraction as indicators of RV systolic function as well as the time constant of relaxation (Tau) and dP/dtmin as measures of RV relaxation were determined.

Assay [2] addresses T1, Nox4 oxidase (COS-Nox4 lysate: hNox4, p22phox) (Homo sapiens, UniProt Q9NPH5).
T1 construct: expressed in transfected cells; host or cells: COS-22 cells (COS 7 with p22phox), stably transfected; cell lysate used
T1 sequence (Q9NPH5 1-578): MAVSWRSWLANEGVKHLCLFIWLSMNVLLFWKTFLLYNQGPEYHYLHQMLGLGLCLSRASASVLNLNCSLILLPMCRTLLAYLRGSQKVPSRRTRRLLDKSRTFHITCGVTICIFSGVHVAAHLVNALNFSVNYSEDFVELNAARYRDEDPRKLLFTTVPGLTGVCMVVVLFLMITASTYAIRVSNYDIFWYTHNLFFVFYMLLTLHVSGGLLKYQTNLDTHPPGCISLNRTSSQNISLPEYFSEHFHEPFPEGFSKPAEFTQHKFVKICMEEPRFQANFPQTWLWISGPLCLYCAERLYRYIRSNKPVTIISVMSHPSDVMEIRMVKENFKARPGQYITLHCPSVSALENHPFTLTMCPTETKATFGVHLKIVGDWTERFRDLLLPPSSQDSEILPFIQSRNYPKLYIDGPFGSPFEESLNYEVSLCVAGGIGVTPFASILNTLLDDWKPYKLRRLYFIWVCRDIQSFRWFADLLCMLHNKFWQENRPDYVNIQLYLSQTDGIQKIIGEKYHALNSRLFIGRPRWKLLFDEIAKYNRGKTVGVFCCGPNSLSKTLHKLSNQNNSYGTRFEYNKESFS
T1 sequence (P13498 2-195 partner limits assumed): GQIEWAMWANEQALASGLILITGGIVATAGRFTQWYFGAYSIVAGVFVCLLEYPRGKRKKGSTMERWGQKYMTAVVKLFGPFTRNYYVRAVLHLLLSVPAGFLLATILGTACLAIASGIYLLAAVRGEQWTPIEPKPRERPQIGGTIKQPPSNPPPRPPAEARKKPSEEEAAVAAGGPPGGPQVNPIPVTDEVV
As to the kind of experiment: Amplex Red assay, H2O2 production in COS-Nox4 lysates. The assay is classed as biochemical. The settings on record: for rate of H2O2 production, Amplex red oxidation: 0 μM control 80.4±3.1. The procedure:
To test this hypothesis, the inhibitory activity of Nox2ds was assessed in cell-free assays using reconstituted systems expressing either Nox1, 2 or 4 oxidase. Nox 2 oxidase was recapitulated by stably transfecting COS 7 cells with Nox2, p22phox, p47phox, and p67phox (aka COS-Nox2). Nox1 oxidase was obtained by transfecting COS 7 cells with Nox1, p22phox, NOXO1 and NOXA1 (COS-Nox1), and Nox 4 oxidase was regenerated by transfection of COS 7 cells with Nox4 and p22phox. […] Our new data support selectivity of Nox2ds peptide in differentiating the contribution of Nox2 vs. Nox1 and Nox4 NADPH oxidase and its potential clinical use in ameliorating cardiopulmonary diseases.
Cell transfection was carried out using Lipofectamine LTX and Plus reagent (Invitrogen), according to the manufacturer's instructions. COS-22 cells were transiently cotransfected with pcDNA 3.1-hNox1, pCMVsport 6-hNOXA1, and pcDNA3.1-hNoxO1 (COS-Nox1/NOXO1/NOXA1 cells). Cells were used 24 h after transfection. For stable transfection of Nox4, COS-22 cells were transfected with pcDNA3.1/Hygro-hNox4 (COS-Nox4 cells). COS-Nox4 cells were selected in complete medium supplemented with 0.2 mg/ml hygromycin B and 1.8 mg/ml G418. Stable transfectants were maintained in culture under the same conditions. Adherent cells were harvested by incubating with 0.05% trypsin/EDTA for 5 min at 37° C. After addition of DMEM/10% FBS to neutralize the trypsin, the cells were pelleted by centrifugation at 1000 g for 5 min at 4° C. and used for the experiments.
Hydrogen peroxide (H2O2) generation was quantified in COS-Nox4 cell lysates by Amplex Red. H2O2-producing activity was quantified in […] using Amplex red. Briefly, COS-Nox4 cells (5×10^7 cells/nil) were disrupted in ice-cold disruption buffer (PBS containing 0.1 mM EDTA, 10% glycerol, protease inhibitor cocktail, and 0.1 mM PMSF) by freeze/thaw cycles as we described above. Incubation of COS-Nox4 cell lysate with Nox2ds was performed in assay buffer (25 mM Hepes, pH 7.4, containing 0.12 M NaCl, 3 mM KCl, 1 mM MgCl2, 0.1 mM Amplex red, and 0.32 U/ml HRP) for 5 min at room temperature on an orbital shaker (120 movements/min), before the addition of 36 μM NADPH, to initiate H2O2 production. […] Fluorescence measurements were made using a Biotek Synergy 4 hybrid multimode microplate reader with a 530/25-excitation and a 590/35-emission filter. A standard curve of known H2O2 concentrations was developed using the Amplex red assay (as per the manufacturer's instructions) and was used to quantify H2O2 production in the COS-Nox4 cell-free system. Nox4 activity was obtained by subtracting nontransfected COS-22 cell lysate activity from COS-Nox4 cell lysate activity. The reaction was monitored at room temperature for 10 min, and the emission increase was linear during this interval.
H2O2 production was initiated by the addition of NADPH and measured by Amplex Red for 10 min.

CSTRVRRQL-NH2 [Nox2ds, CSTRVRRQL]: in assay [1] (hypoxia-induced pulmonary hypertension in mice), the “right ventricular hypertrophy and RV pressure (in words)” value is recorded as “attenuated”. Further, the “right ventricule/left ventricule+septum ratio (Fulton's Index)” value in assay [1] (hypoxic mice, n=2, normoxic 0.21±0.01, hypoxic 0.27±0.02, preliminary data) turned out to be 0.22±0.004. Moreover, the “inhibition of COS-Nox4 lysate H2O2 production (in words)” value in assay [2] is given as “did not inhibit”. Further, the “rate of H2O2 production, Amplex red oxidation” value in assay [2] (0.1 μM peptide) is reported as 74.3±2.1 nmol H2O2/min/10^7 cell lysate equivalents; in assay [2] (0.3 μM peptide), 74.1±5.9 nmol H2O2/min/10^7 cell lysate equivalents; in assay [2] (1 μM peptide), 82.3±3.4 nmol H2O2/min/10^7 cell lysate equivalents; in assay [2] (3 μM peptide), 83.3±1.6 nmol H2O2/min/10^7 cell lysate equivalents.
